From US10669246B2, “Benzothiazol compounds and methods using the same for treating neurodegenerative disorders” (1ST Biotherapeutics, Inc., priority 2017, dated 2020)

Assays:
[1] = tested on: α-synuclein PFF-induced pathologic aggregation (Lewy body-like pathology); test: α-synuclein PFF-induced pathologic aggregation; type: cell-based
[2] = tested on: PFF-induced neuronal toxicity; test: PFF-induced neuronal toxicity; type: cell-based; conditions: dose: 0.5, 1, 5, 10, 100 nM
[3] = tested on: Phosphorylation of α-synuclein at ser129; test: Phosphorylation of α-synuclein in α-synuclein PFF induced PD model; type: in vivo, mice; conditions: q.d.; for reduction of phosphorylation of α-synuclein at ser129: oral
[4] = tested on: α-synuclein PFF induced PD mice; test: Pole test in α-synuclein PFF induced PD mice; type: in vivo
[5] = tested on: Aβ25-35 induced AD mice; test: Y-maze spontaneous alternation in Aβ25-35 induced AD mice; type: in vivo; conditions: orally once daily for 10 days; Example 4 1, 3 and 10 mg/kg, nilotinib 3 mg/kg
Source text: Y-maze test as a behavioral test was used to assess memory function and the willingness of rodents to explore new environments ICV injection of oligomeric Aβ25-35 peptide triggered neurotoxic effects and behavioral deficit in Y-maze test evaluating short term memory, by measurement of spontaneous alternation, while any change of motor symptom was not observed by measurement of locomotion.

[6] = tested on: Aβ25-35 induced AD mice; test: Step-through passive avoidance (STPA) test in Aβ25-35 induced AD mice; type: in vivo; conditions: orally once daily for 10 days; Example 4 1, 3 and 10 mg/kg, nilotinib 3 mg/kg
[7] = tested on: Aβ25-35 induced AD mice; test: Lipid peroxidation in hippocampus homogenates of Aβ25-35 injected mice; type: in vivo; conditions: once daily oral dosing of 3 mg/kg and 10 mg/kg
Source text: 10 Days after ICV injection of oligomeric Aβ25-35 peptide, the hippocampus was dissected out. And lipid peroxidation level was quantified in the hippocampus homogenates. ICV injection of oligomeric Aβ25-35 peptide induced lipid peroxidation, a marker for oxidative stress. […] (FIG. 7)

[8] = in vivo; conditions: male, ICR, mouse, po, 5 mg/kg
[9] = Oral dose pharmacokinetic study in mice; conditions: for brain exposure compared with nilotinib: oral 5 mg/kg
[10] = target: hERG (Homo sapiens (Human), UniProt Q12809); test: hERG activity
Sequence of hERG (Q12809 whole entry): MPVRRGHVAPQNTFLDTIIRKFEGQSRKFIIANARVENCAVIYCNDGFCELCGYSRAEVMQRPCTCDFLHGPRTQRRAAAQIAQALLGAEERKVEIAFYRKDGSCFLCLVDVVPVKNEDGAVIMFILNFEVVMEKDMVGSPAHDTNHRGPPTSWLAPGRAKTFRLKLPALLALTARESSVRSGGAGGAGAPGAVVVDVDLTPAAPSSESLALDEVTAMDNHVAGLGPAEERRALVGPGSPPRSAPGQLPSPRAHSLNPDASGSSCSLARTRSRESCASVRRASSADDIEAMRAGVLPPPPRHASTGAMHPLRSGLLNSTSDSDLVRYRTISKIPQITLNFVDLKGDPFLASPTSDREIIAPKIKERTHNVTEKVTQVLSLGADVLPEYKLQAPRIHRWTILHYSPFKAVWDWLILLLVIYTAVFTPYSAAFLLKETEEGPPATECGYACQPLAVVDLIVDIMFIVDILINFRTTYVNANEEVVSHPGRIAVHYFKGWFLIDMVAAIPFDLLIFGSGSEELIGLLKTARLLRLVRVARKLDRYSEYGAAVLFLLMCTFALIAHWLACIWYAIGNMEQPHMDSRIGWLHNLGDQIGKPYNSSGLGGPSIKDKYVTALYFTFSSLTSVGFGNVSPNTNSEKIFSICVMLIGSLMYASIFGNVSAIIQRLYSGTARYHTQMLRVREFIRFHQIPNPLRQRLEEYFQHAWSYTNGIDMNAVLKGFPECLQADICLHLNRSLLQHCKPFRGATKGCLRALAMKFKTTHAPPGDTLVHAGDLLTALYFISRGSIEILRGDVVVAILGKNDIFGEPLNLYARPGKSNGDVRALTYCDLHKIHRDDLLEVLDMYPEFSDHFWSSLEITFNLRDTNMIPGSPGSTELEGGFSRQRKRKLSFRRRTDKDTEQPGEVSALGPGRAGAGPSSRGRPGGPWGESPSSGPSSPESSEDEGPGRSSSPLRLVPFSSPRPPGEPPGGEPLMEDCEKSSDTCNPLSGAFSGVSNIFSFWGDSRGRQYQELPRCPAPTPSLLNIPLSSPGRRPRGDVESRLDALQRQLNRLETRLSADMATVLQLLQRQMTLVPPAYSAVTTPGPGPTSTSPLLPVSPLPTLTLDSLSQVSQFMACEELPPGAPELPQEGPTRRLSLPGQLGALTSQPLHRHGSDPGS

[11] = target: Recombinant human c-Kit (Homo sapiens (Human), UniProt P10721); test: c-KIT kinase assay (ADP-Glo); type: biochemical; conditions: Table 3, kinase selectivity
Sequence of Recombinant human c-Kit (P10721 26-976): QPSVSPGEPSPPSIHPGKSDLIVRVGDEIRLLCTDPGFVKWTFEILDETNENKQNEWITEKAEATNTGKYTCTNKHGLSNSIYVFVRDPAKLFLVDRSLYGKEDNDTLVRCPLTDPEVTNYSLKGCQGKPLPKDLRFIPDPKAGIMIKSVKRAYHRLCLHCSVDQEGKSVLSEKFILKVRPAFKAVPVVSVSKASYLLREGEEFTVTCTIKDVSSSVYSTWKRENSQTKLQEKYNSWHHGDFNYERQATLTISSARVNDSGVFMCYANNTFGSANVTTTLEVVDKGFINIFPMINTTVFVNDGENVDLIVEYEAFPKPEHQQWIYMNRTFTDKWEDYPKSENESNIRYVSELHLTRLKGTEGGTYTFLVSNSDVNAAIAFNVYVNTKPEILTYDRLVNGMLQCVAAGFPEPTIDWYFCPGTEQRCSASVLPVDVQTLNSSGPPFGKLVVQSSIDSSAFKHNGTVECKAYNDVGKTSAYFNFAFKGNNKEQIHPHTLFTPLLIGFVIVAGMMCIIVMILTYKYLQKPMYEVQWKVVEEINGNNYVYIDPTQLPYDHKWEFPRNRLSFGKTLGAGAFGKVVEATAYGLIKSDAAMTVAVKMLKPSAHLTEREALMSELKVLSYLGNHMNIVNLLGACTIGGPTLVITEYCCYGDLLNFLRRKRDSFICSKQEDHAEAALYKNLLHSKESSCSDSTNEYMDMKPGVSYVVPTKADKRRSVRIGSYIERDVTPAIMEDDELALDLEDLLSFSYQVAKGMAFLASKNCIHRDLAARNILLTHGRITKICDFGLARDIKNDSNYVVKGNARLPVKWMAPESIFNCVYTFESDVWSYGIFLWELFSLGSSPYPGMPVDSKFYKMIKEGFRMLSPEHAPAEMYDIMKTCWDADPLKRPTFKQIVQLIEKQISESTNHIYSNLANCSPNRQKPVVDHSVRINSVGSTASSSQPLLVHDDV
Procedure: ADP-Glo assay kit was purchased from Promega. Magnesium chloride (MgCl2), Manganese(II) chloride (MnCl2), Bovine serum albumin (BSA) and dimethylsulfoxide (DMSO) were purchased from Sigma-Aldrich. Tris-HCl buffer was purchased from Biosesang. c-Kit kinase and Poly (4:1 Glu, Tyr) Peptide were purchased from Signalchem.
c-Kit kinase activity was measured by Promega's ADP-Glo™ Assay.

[12] = 10 mg/kg orally once daily for 5 months

Cc1ccncc1-c1ccc2nc(NC(=O)[C@@H]3C[C@@H]3F)sc2c1 [Example 4, (1S,2S)-2-fluoro-N-(6-(4-methylpyridin-3-yl)benzo[d]thiazol-2-yl)cyclopropane-1-carboxamide]
α-synuclein PFF-induced pathologic aggregation (Lewy body-like pathology) [1]: decreased | PFF-induced neuronal toxicity [2]: inhibited PFF-induced neuronal toxicity in a dose dependent manner | reduction of phosphorylation of α-synuclein at ser129 ([3]; 3 mg/kg): about 50% | reduction of phosphorylation of α-synuclein at ser129 ([3]; 10 mg/kg): ~80% | improvement of pole climb down time ([4]; 0.3 mg/kg orally once daily for 5 months): 50% | pole climb down time [4, 12]: completely recovered | pole climb down time ([4]; 0.3, 1, 3 and 10 mg/kg orally once daily for 5 months): recovered by treatment of Example 4 in a dose-dependent manner | deficits of alternation behavior (spatial working memory) [5]: very significantly and fully alleviated | contextual long-term memory deficits [6]: very significantly and fully alleviated | lipid peroxidation (oxidative stress marker) in hippocampus [7]: completely inhibited | AUC(0-inf) ([8]; brain): 4140 ng·h/mL | AUC(0-inf) ([8]; plasma): 11400 ng·h/mL | Cmax ([8]; plasma): 3590 ng/mL | Tmax ([8]; plasma): 30 min | PK profile [9]: good PK profiles | AUCINF ([9]; PO 5 mg/kg, Table 5): 682041.7 ng·min/mL | brain exposure compared with nilotinib [9]: better brain exposure than nilotinib

Cc1ccncc1-c1ccc2nc(NC(=O)C3CC3)sc2c1 [Example 5, N-(6-(4-methylpyridin-3-yl)benzo[d]thiazol-2-yl)cyclopropanecarboxamide]
AUC(0-inf) ([8]; brain): 1980 ng·h/mL | AUC(0-inf) ([8]; plasma): 8480 ng·h/mL

Cc1ccncc1-c1ccc2sc(NC(=O)[C@@H]3C[C@@H]3F)nc2c1 [Example 6, (1S,2S)-2-fluoro-N-(5-(4-methylpyridin-3-yl)benzo[d]thiazol-2-yl)cyclopropane-1-carboxamide]
AUC(0-inf) ([8]; brain): 3950 ng·h/mL | Kp ([8]; brain/plasma): 0.5 | AUC(0-inf) ([8]; plasma): 4860 ng·h/mL

Cc1c(F)cncc1-c1ccc2nc(NC(=O)[C@@H]3C[C@@H]3F)sc2c1 [Example 8, (1S,2S)-2-fluoro-N-(6-(5-fluoro-4-methylpyridin-3-yl)benzo[d]thiazol-2-yl)cyclopropane-1-carboxamide]
inhibition at 10 µM [10]: 12.6% | Cmax ([8]; plasma): 4170 ng/mL | Tmax ([8]; plasma): 60 min | PK profile [9]: good PK profiles | brain exposure compared with nilotinib [9]: better brain exposure than nilotinib

Cc1ccc(O)cc1-c1ccc2nc(NC(=O)[C@@H]3C[C@@H]3F)sc2c1 [Example 14, (1S,2S)-2-fluoro-N-(6-(5-hydroxy-2-methylphenyl)benzo[d]thiazol-2-yl)cyclopropane-1-carboxamide]
IC50 [11]: 1340 nM

C=C(C)c1ccc(C)c(-c2ccc3nc(NC(=O)[C@@H]4C[C@@H]4F)sc3c2)c1 [Example 17, (1S,2S)-2-fluoro-N-(6-(2-methyl-5-(prop-1-en-2-yl)phenyl)benzo[d]thiazol-2-yl)cyclopropane-1-carboxamide]
IC50 [11]: > 10000 nM

Cc1c(O)cccc1-c1ccc2nc(NC(=O)[C@@H]3C[C@@H]3F)sc2c1 [Example 22, (1S,2S)-2-fluoro-N-(6-(3-hydroxy-2-methylphenyl)benzo[d]thiazol-2-yl)cyclopropane-1-carboxamide]
IC50 [11]: 1020 nM

Cc1cn(-c2cc(NC(=O)c3ccc(C)c(Nc4nccc(-c5cccnc5)n4)c3)cc(C(F)(F)F)c2)cn1 [Nilotinib, nilotinib, reference compound]
effect on phosphorylation of α-synuclein ([3]; 3 and 10 mg/kg): not effective | pole climb down time [4, 12]: just a slight improvement | deficits of alternation behavior (spatial working memory) [5]: partially alleviated | contextual long-term memory deficits [6]: no significant effect
